The values that follow come from patent US4281180A, “Process for producing threo-3-amino-2-hydroxybutanoyl-aminoacetic acids, as well as novel intermediated therefor and process for producing them” (Nippon Kayaku Kabushiki Kaisha, priority 1978, dated 1981).

The subject of the first data set is cancer.
Assay: not given
Particulars: Japanese Patent Laid-Open Publication No. 117435/1977; cited from earlier work.
With `CC(C)C[C@H](NC(=O)[C@@H](O)[C@H](N)Cc1ccccc1)C(=O)O` [bestatin, (2S,3R)-3-amino-2-hydroxy-4-phenylbutanoyl-(S)-leucine], the effects for cancer result is on record as “inhibitive effects for cancer”.

The target of a further data set is T1, aminopeptidase B (Rattus norvegicus, UniProt O09175).
T1 construct: an aminopeptidase B solution purified by the same enzyme purification process as in the process by Hopsu et al; from tissue
T1 sequence (O09175 1-650): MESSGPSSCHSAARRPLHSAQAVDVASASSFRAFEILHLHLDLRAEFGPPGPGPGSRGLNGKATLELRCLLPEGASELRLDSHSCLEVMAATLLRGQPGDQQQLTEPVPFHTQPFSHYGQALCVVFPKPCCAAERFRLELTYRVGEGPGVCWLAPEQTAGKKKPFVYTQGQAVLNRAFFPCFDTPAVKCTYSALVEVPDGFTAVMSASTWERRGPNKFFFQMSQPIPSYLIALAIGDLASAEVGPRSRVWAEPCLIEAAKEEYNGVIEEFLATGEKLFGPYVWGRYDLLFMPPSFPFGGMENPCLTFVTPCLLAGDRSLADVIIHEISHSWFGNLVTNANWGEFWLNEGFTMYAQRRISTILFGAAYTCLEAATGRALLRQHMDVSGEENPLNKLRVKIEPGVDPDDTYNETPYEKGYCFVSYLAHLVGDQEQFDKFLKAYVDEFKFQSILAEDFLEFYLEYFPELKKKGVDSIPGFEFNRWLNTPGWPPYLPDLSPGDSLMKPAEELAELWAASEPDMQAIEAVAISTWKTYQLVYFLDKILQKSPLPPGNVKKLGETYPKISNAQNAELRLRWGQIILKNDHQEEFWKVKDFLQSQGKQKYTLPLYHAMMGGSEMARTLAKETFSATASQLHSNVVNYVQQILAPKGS
Assay: not given
Particulars: U.S. Pat. No. 4,029,547; cited from earlier work.
In the case of `CC(C)C[C@H](NC(=O)[C@@H](O)[C@H](N)Cc1ccccc1)C(=O)O` [bestatin, (2S,3R)-3-amino-2-hydroxy-4-phenylbutanoyl-(S)-leucine], the “aminopeptidase B inhibitor” value is listed as “aminopeptidase B inhibitor”.

A further data set concerns the target T1, aminopeptidase B. The data set is described as follows: Inhibitory Activity to Aminopeptidase B. The data set is classed as biochemical. Particulars: pH 7.0, 37° C., 30 minutes, substrate arginine-β-naphthylamide; read-out: IC50 (50% inhibitory ratio) (converted). The protocol:
Measurement for the inhibitory activity to aminopeptisase B was conducted by the method reported by Hopsu et al. while somewhat modifying the process [V. K. Hopsu, K. K. Makinen, G. G. Glenner; Archives of Biochemistry and Biophysics, 114, 557 (1966)].
A mixed solution (pH 7.0) prepared by adding 1.0 ml of a 0.1 M tris-hydrochloric acid buffer solution and 0.7 ml of a solution containing a test specimen to 0.3 ml of 0.1 mM arginine-β-naphthylamide was heated at 37° C. for 4 minutes. Thereafter, 0.2 ml of an aminopeptidase B solution purified by the same enzyme purification process as in the process by Hopsu et al. using Sephadex G-100 (registered Trademark) was added and reacted at 37° C. for 30 minutes. Then, 0.6 ml of a 1.0 M acetic acid buffer solution (pH 4.2) containing Garnet GBC (o-aminoazotoluenediazonium salt) at 1.0 mg/ml concentration and containing Tween 20 (registered trademark) at 1.0% concentration was further added and left for 15 minutes at room temperature, after which absorption ratio (a) at 530 nm was measured. The absorption ratio (b) for the blind solution using only the buffer solution containing no specimen was simultaneously mesured, and the inhibitory ratio to aminopeptidase B was calculated as (b-a)/b×100.
Inhibitory ratios for each of the specimens at several concentrations were determined by the above test method, from which 50% inhibitory ratios (IC50) were deduced.
As for `CC(C)C[C@H](NC(=O)C(O)C(N)Cc1ccc(C(C)C)cc1)C(=O)O` (stereo partly drawn) [compound 7], the IC50 is 342 nM. On the same count and under the same terms, next, `CC(C)C[C@H](NC(=O)C(O)C(N)Cc1cccc2ccccc12)C(=O)O` (stereo partly drawn) [No. 4, Threo-(2RS)-3-amino-2-hydroxy-4-(1-naphthyl)butanoyl-(S)-leucine]: 4180 nM; `COc1ccc(C[C@@H](N)[C@H](O)C(=O)N[C@@H](CC(C)C)C(=O)O)cc1` [No. 1, (2S,3R)-3-amino-2-hydroxy-4-(4-methoxyphenyl)butanoyl-(S)-leucine]: 17.7 nM.

Consider `CC(C)C[C@H](NC(=O)C(O)C(N)Cc1cccc(O)c1)C(=O)O` (stereo partly drawn) [No. 16, Threo-(2RS)-3-amino-2-hydroxy-4-(3-hydroxyphenyl)butanoyl-(S)-leucine], for which the IC50 was 277 nM. Same read-out and setting: in the case of `CC(C)Cc1ccc(CC(N)C(O)C(=O)N[C@@H](CC(C)C)C(=O)O)cc1` (stereo partly drawn) [No. 8, Threo-(2RS)-3-amino-2-hydroxy-4-(4-iso-butylphenyl)butanoyl-(S)-leucine] it was 7680 nM.

On to `CC[C@H](C)[C@H](NC(=O)C(O)C(N)Cc1ccc2ccccc2c1)C(=O)O` (stereo partly drawn) [No. 13, Threo-(2RS)-3-amino-2-hydroxy-4-(2-naphthyl)butanoyl-(S)-isoleucine], for which the IC50 is 83.7 nM. The same measure, in the same setting: next, `CC(C)C[C@H](NC(=O)C(O)C(N)Cc1ccccc1O)C(=O)O` (stereo partly drawn) [No. 15, Threo-(2RS)-3-amino-2-hydroxy-4-(2-hydroxyphenyl)butanoyl-(S)-leucine]: 1630 nM.

For `CC(C)C[C@H](NC(=O)C(O)C(N)Cc1ccc(O)c(O)c1)C(=O)O` (stereo partly drawn) [No. 9, Threo-(2RS)-3-amino-2-hydroxy-4-(3,4-dihydroxyphenyl)butanoyl-(S)-leucine], the IC50 is 5290 nM. The same measure, in the same setting: next, `CC(C)C[C@H](NC(=O)C(O)C(N)Cc1ccc(-c2ccccc2)cc1)C(=O)O` (stereo partly drawn) [No. 6, Threo-(2RS)-3-amino-2-hydroxy-4-(4-phenylphenyl)butanoyl-(S)-leucine]: 9360 nM; `CC(C)C[C@H](NC(=O)C(O)C(N)Cc1ccc2ccccc2c1)C(=O)O` (stereo partly drawn) [No. 5, Threo-(2RS)-3-amino-2-hydroxy-4-(2-naphthyl)butanoyl-(S)-leucine]: 279 nM; `COc1ccccc1CC(N)C(O)C(=O)N[C@@H](CC(C)C)C(=O)O` (stereo partly drawn) [No. 2, Threo-(2RS)-3-amino-2-hydroxy-4-(2-methoxyphenyl)butanoyl-(S)-leucine]: 8570 nM.

`COc1cccc(CC(N)C(O)C(=O)N[C@@H](CC(C)C)C(=O)O)c1` (stereo partly drawn) [No. 3, Threo-(2RS)-3-amino-2-hydroxy-4-(3-methoxyphenyl)butanoyl-(S)-leucine]: the IC50 was 118 nM. Still for that read-out and setting: in the case of `CC(C)COc1ccc(CC(N)C(O)C(=O)N[C@@H](CC(C)C)C(=O)O)cc1` (stereo partly drawn) [No. 11, Threo-(2RS)-3-amino-2-hydroxy-4-(4-iso-butoxyphenyl)butanoyl-(S)-leucine] it was 11800 nM; in that of `COc1ccc(C[C@@H](N)[C@H](O)C(=O)N[C@H](C(=O)O)C(C)C)cc1` [No. 14, (2S,3R)-3-amino-2-hydroxy-4-(4-methoxyphenyl)butanoyl-(S)-valine], 216 nM; in that of `CC(C)C[C@H](NC(=O)C(O)C(N)Cc1ccc(F)cc1)C(=O)O` (stereo partly drawn) [No. 12, Threo-(2RS)-3-amino-2-hydroxy-4-(4-fluorophenyl)butanoyl-(S)-leucine], 91.9 nM.

Consider `CC(C)C[C@H](NC(=O)C(O)C(N)Cc1ccc(OC(C)C)cc1)C(=O)O` (stereo partly drawn) [No. 10, Threo-(2RS)-3-amino-2-hydroxy-4-(4-iso-propoxyphenyl)butanoyl-(S)-leucine], for which the IC50 is 18600 nM.

System in a further data set: not given
Assay: not given
Particulars: isolated from culture filtrates of Streptomyces olivoreticuli; cited from earlier work.
Regarding `CC(C)C[C@H](NC(=O)[C@@H](O)[C@H](N)Cc1ccccc1)C(=O)O` [bestatin, (2S,3R)-3-amino-2-hydroxy-4-phenylbutanoyl-(S)-leucine], the toxicity result is “least toxic”.

The subject of the next data set is immunoresponse.
Assay: not given
Particulars: Japanese Patent Laid-Open Publication No. 117435/1977; cited from earlier work.
Turning to `CC(C)C[C@H](NC(=O)[C@@H](O)[C@H](N)Cc1ccccc1)C(=O)O` [bestatin, (2S,3R)-3-amino-2-hydroxy-4-phenylbutanoyl-(S)-leucine], the “effect to immunoresponse such as delayed hypersthesia” value was “increasing effect to immunoresponse such as delayed hypersthesia” and the “in vivo defense mechanism” value was “activate in vivo defense mechanism”.
